Consider eight molecules from the supplement of paper PMC4862054.

Test [1] deals with MDA-MB-468. The experiment in a line: normalised viability (% of control), CellTiter-Blue; higher = more viable cells (about 100 = DMSO control). Particulars: incubation time: 72 h. In outline:
(§1)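 Breast cancer cell lines in 20 µl suspension were seeded onto 384-well plates pre-loaded with compound dissolved in 5 µl medium, then incubated 72 h. CellTiter-Blue reagent (2.5 µl) was added for 2 h at 37 °C and fluorescence read at 560/590 nm. Each plate was normalised to vehicle (100) and a positive kill control (0), with Z'-factor quality control. The value is normalised viability at one listed concentration of the series.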
On the technique in general: Alamar Blue is a resazurin reagent that responds to reducing activity.

In test [2] the test system is BT-549. The test is described as above. The note with it: incubation time: 72 h. In a few lines:
as §1

For test [3], the system named is MDA-MB-231. The test is described as above. Particulars: incubation time: 72 h. In outline: as §1
Test [4] deals with MDA-MB-468. The note with it: 72 h. In outline: (§2)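 Breast cancer cell lines (20 µl suspension) were seeded into 384-well plates holding compound at 5 concentrations in 10-fold steps over a compound-specific 10,000-fold range, then incubated 72 h. Cell death was read first by CellTox Green fluorescence (485/520 nm), then viability by CellTiter-Glo luminescence after 10 min at room temperature. Each plate was normalised to 0.1 % DMSO and a positive kill control. EC50 was fitted from the dose-response curves and censored at the top concentration.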

Test [5] relates to HCC1143. Particulars: 72 h. In a few lines: as §2
The subject of test [6] is HDQ-P1. The note with it: 72 h. In outline:
as §2

In test [7] the test system is MCF-10A. Particulars: 72 h. In a few lines: as §2
The test system of test [8] is CAL-120. Particulars: 72 h. In a few lines:
as §2

For test [9], the system named is Hs578T. The note with it: 72 h. In outline:
as §2

Test [10] deals with MDA-MB-231. Particulars: 72 h. In a few lines:
as §2

Test [11] deals with MFM-223. Particulars: 72 h. In outline:
as §2

Test [12] relates to MDA-MB-436. The note with it: 72 h. In a few lines:
as §2

In test [13] the test system is BT-474. Particulars: 72 h. In a few lines:
as §2

Test [14] concerns HCC1599. The note with it: 72 h. In outline: (§3)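 Breast cancer cell lines in 20 µl suspension were seeded onto 384-well plates pre-loaded with compound dissolved in 5 µl medium, then incubated 72 h. For viability, 2.5 µl CellTiter-Blue was added for 2 h at 37 °C and fluorescence read at 560/590 nm. Each plate was normalised to vehicle and a positive kill control and checked by Z'-factor. EC50 comes from the fitted percent-inhibition dose-response curve, censored at the highest concentration; rows with zero drug sensitivity score were dropped.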

The test system of test [15] is MDA-MB-468. The note with it: 72 h. In outline: as §3
This is another data set of the same source.

Test [16] relates to BT-549. The note with it: 72 h. In a few lines:
as §3

Test [17] relates to HCC1143. The note with it: 72 h. In outline:
as §3
The source holds these as a separate data set.

In test [18] the test system is CAL-120. Particulars: 72 h. In outline:
as §3
The source holds these as a separate data set.

Test [19] concerns Hs578T. The note with it: 72 h. In a few lines: as §3
The source holds these as a separate data set.

Test [20] has as its system MDA-MB-231. The note with it: 72 h. In a few lines:
as §3
This is another data set of the same source.

Test [21] deals with MFM-223. The note with it: 72 h. In a few lines: as §3
The source holds these as a separate data set.

Test [22] has as its system HCC1937. The note with it: 72 h. In a few lines: as §3
For test [23], the system named is MDA-MB-436. Particulars: 72 h. In a few lines:
as §3
The source holds these as a separate data set.

Test [24] concerns CAL-51. Particulars: 72 h. In outline: as §2
For test [25], the system named is HDQ-P1. The experiment in a line: normalised viability (% of control), CellTiter-Blue; higher = more viable cells (about 100 = DMSO control). Particulars: incubation time: 72 h. In a few lines:
as §1

Test [26] relates to DU-4475. The description is as above. Particulars: incubation time: 72 h. In outline: as §1
Test [27] has as its system CAL-51. The description is as above. Particulars: incubation time: 72 h. In a few lines:
as §1

In test [28] the test system is MDA-MB-453. The test is described as above. The note with it: incubation time: 72 h. In outline: as §1
Test [29] relates to CAL-148. The test is described as above. The note with it: incubation time: 72 h. In a few lines: as §1
The subject of test [30] is CAL-85-1. The test is described as above. Particulars: incubation time: 72 h. In outline:
as §1

For the molecule `CCS(=O)(=O)c1cccc(-c2cc(C(=O)NC3CCN(C)CC3)c(C)c3[nH]c4ncc(C)cc4c23)c1` [TAK-901], the normalised viability was found to be 112% in test [1] (1 nM); 33.1% in test [1] (100 nM); 63.6% in [1] (1000 nM); 94.6% in test [2] (1 nM); 71.2% in [2] (100 nM); 20.1% in [2] (1000 nM). Also, the results for the normalised viability in [3] (1 nM), in test [3] (100 nM) and in test [3] (1000 nM) were 99.4%, 64.9% and 20.6%, respectively. Moreover, the “EC50, CellTiter-Glo” value amounted to 26.2 nM in [4]; 130 nM in test [5]; 642 nM in test [6]; 151 nM in [7]; 131 nM in test [8]; 445 nM in test [9]. Besides, the “EC50, CellTiter-Glo” value in [10] is 144 nM; in test [11], 123 nM; in test [12], 299 nM; in test [13] it was 152 nM. Also, the “EC50, CellTiter-Blue viability” value in test [14] worked out at 110 nM; in test [15], 442 nM; in test [16] it was 126 nM; in [17], 225 nM; in test [18], 94.4 nM; in test [19], 125 nM. The “EC50, CellTiter-Blue viability” value in test [20] is 110 nM; in test [21], 56.6 nM; in test [22] it was 142 nM; in [23], 214 nM.

In the case of `CS(=O)(=O)OCCCCOS(C)(=O)=O` [Busulfan], the normalised viability amounted to 99.1% in [1] (100 nM); 109% in [1] (10000 nM); 90.5% in test [1] (100000 nM); 84% in test [2] (100 nM); 92.4% in [2] (10000 nM); 68.2% in test [2] (100000 nM). The normalised viability came out at 94.3% in test [3] (100 nM), 95.4% in test [3] (10000 nM) and 94.3% in test [3] (100000 nM). Besides, in [13], the “EC50, CellTiter-Glo” value was greater than 100000 nM. For the same molecule, the “EC50, CellTiter-Blue viability” value in test [22] was 77100 nM.

On to `COc1cc(Nc2ncc(F)c(Nc3ccc4c(n3)NC(=O)C(C)(C)O4)n2)cc(OC)c1OC` [Tamatinib], for which the “EC50, CellTiter-Glo” value in [24] came out at 2310 nM.

On to `Cn1cnc2c(F)c(Nc3ccc(Br)cc3F)c(C(=O)NOCCO)cc21` [MEK-162] (1000 nM), for which the normalised viability in test [25] was 91.2%; in test [26] it was -0.34%; in test [27], 84.5%; in test [28], 122%; in test [29], 90.6%; in test [30], 70.5%.

For `COC1=CC(c2cc3ccccc3[nH]2)=N/C1=C\c1[nH]c(C)cc1C` [Obatoclax] (10000 nM), the normalised viability in test [25] was determined as 35.5%; in [26], 30%; in [27], 6.23%; in test [28] it was 18.6%; in test [29], 10.8%; in [30], 22.1%.

As for `COC1=C2C[C@@H](C)C[C@H](OC)[C@H](O)[C@@H](C)/C=C(\C)[C@H](OC(N)=O)[C@@H](OC)/C=C\C=C(/C)C(=O)NC(=CC1=O)C2=O` [Geldanamycin] (10000 nM), the normalised viability in test [25] is 14.5%; in test [26], -0.94%; in [27] it was 2.17%; in [28], 7.62%; in test [29], 7.57%; in [30], 6.88%.

For `CCOc1cc2ncc(C#N)c(Nc3ccc(OCc4ccccn4)c(Cl)c3)c2cc1NC(=O)/C=C/CN(C)C` [Neratinib] (1000 nM), the normalised viability came to 116% in test [25]; 105% in test [26]; 92.5% in test [27]; 75.8% in test [28]; 79.5% in test [29]; 101% in test [30].

In the case of `CC(C)(C)c1cc(NC(=O)Nc2ccc(-c3cn4c(n3)sc3cc(OCCN5CCOCC5)ccc34)cc2)no1` [Quizartinib], the normalised viability in test [1] (1 nM) is 108%; in [1] (100 nM), 108%; in test [1] (1000 nM), 86.1%; in test [2] (1 nM) it was 89.4%; in test [2] (100 nM) it was 95.1%; in test [2] (1000 nM), 44%. In addition, the normalised viability in test [3] (1 nM) was determined as 104%; in test [3] (100 nM), 118%; in [3] (1000 nM) it was 89.7%. The “EC50, CellTiter-Blue viability” value in test [14] came to 878 nM; in [16] it was 259 nM.
